# Data as given in US20190210996A1, “NOVEL COMPOUNDS” (GLAXOSMITHKLINE INTELLECTUAL PROPERTY DEVELOPMENT LIMITED, priority 2016, published 2019).
# Columns and labels:
# [1] = molecular target: T1, GAK (Homo sapiens, UniProt O14976); test: Expression proteomics in THP-1 cells: GAK protein level; assay type: cell-based
# T1 construct: endogenous in cells; host or cells: THP-1
# T1 sequence (O14976 1-1311): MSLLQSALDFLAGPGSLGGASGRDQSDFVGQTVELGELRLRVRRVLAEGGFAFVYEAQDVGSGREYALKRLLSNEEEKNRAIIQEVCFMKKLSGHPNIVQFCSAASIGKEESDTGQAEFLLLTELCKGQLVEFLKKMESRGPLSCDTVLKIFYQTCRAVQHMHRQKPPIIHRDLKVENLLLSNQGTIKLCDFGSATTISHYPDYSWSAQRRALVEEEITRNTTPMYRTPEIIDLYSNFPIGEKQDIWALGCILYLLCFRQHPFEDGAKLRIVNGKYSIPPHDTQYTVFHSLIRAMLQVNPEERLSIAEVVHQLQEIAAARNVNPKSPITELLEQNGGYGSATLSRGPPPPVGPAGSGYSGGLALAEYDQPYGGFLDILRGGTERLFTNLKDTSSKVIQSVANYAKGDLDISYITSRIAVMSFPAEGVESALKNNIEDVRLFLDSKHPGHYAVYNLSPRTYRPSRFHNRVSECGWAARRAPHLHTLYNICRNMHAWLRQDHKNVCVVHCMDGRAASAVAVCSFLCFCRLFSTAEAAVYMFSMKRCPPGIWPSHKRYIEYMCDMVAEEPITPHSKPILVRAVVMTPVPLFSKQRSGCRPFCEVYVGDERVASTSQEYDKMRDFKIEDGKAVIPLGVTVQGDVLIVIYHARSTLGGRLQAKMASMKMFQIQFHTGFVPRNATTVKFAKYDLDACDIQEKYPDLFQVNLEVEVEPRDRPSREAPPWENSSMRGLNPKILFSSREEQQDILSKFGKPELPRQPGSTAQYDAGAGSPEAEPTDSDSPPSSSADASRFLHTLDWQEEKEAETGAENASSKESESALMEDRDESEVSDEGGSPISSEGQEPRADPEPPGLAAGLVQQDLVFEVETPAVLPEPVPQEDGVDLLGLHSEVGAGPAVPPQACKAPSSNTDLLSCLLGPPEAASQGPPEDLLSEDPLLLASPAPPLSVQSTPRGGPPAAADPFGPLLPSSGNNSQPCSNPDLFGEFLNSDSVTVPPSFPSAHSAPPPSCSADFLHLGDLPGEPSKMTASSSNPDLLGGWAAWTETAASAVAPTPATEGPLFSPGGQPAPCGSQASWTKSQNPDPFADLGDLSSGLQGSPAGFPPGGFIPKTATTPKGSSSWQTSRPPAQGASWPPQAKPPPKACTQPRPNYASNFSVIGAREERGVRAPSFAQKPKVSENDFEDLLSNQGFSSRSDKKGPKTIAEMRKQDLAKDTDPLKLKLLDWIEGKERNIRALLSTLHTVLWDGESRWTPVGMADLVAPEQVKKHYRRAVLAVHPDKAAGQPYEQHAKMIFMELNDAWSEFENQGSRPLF
# Method: (§1) THP-1 cells were seeded at a concentration of 3×10^6 cells in T175 flasks with 60 mL growth medium (RPMI1640+10% FBS). […] of a 10× compound solution prepared in growth medium (DMSO), CEREBLON_PROTAC) was added and the cells were treated for the indicated time points (6 or 24 h) at 37° C., 5% CO2. For harvesting the cells were collected into falcon tubes on ice, centrifuged and washed twice in cold PBS (Life technologies). After the last washing step the supernatant was removed and the pellets were snap-frozen in liquid N2 and stored at −80° C. and lysed in 2% SDS for 3 min at 95° C. in a thermomixer (Thermo Fisher Scientific), followed by digestion of DNA with Benzonase at 37° C. for 1.5 h. Lysate was cleared by centrifugation an protein concentration in supernatant was determined by BCA assay.
# (§2) Leukemia 25, 89-100 (2011).
# (§3) Samples were dried in vacuo and resuspended in 0.05% trifluoroacetic acid in water. Of the sample, 50% was injected into an Ultimate3000 nanoRLSC (Dionex, Sunnyvale, Calif.) coupled to a Q Exactive HF (Thermo Fisher Scientific). Peptides were trapped on a 5 mm×300 μm C18 column (Pepmap100, 5 μm, 300 Å, Thermo Fisher Scientific) in water with 0.05% TFA at 60° C. Separation was performed on custom 50 cm×[…] (ID) reversed-phase columns (Reprosil) at 55° C. Gradient elution was performed from 2% acetonitrile to 40% acetonitrile in 0.1% formic acid and 3.5% DMSO over 2 hours. Samples were online injected into Q-Exactive HF mass spectrometers operating with a data-dependent top 10 method. MS spectra were acquired by using 60.000 resolution and an ion target of 3×10^6. Higher energy collisional dissociation (HCD) scans were performed with 35% NCE at 30.000 resolution (at m/z 200), and the ion target settings was set to 2×10^5 so as to avoid coalescence (Werner, T. et al. Ion Coalescence of Neutron Encoded TMT 10-Plex Reporter Ions. Anal. Chem. 86, 3594-3601 (2014).
# (§4) The first search was performed with 30 parts per million mass tolerance for peptide precursors and 30 mD (HCD) mass tolerance for fragment ions followed by a final search using recalibrated data with a 10 parts per million mass tolerance for peptide precursors and 20 mD (HCD) mass tolerance for fragment ions. Carbamidomethylation of cysteine residues and TMT modification of lysine residues were set as fixed modifications and methionine oxidation, and N-terminal acetylation of proteins and TMT modification of peptide N-termini were set as variable modifications. […]
# (§5) Nat Biotech 29, 255-265 (2011). this measure is referred to as ion area Savitski, M. M. et al. Delayed Fragmentation and Optimized Isolation Width Settings for Improvement of Protein Identification and Accuracy of Isobaric Mass Tag Quantification on Orbitrap-Type Mass Spectrometers. […]
# [2] = molecular target: T2, AAK1 (Homo sapiens, UniProt Q2M2I8); test: Expression proteomics in THP-1 cells: AAK1 protein level; assay type: cell-based; details: AAK1, THP-1 cells
# T2 construct: endogenous in cells; host or cells: THP-1
# T2 sequence (Q2M2I8 whole entry): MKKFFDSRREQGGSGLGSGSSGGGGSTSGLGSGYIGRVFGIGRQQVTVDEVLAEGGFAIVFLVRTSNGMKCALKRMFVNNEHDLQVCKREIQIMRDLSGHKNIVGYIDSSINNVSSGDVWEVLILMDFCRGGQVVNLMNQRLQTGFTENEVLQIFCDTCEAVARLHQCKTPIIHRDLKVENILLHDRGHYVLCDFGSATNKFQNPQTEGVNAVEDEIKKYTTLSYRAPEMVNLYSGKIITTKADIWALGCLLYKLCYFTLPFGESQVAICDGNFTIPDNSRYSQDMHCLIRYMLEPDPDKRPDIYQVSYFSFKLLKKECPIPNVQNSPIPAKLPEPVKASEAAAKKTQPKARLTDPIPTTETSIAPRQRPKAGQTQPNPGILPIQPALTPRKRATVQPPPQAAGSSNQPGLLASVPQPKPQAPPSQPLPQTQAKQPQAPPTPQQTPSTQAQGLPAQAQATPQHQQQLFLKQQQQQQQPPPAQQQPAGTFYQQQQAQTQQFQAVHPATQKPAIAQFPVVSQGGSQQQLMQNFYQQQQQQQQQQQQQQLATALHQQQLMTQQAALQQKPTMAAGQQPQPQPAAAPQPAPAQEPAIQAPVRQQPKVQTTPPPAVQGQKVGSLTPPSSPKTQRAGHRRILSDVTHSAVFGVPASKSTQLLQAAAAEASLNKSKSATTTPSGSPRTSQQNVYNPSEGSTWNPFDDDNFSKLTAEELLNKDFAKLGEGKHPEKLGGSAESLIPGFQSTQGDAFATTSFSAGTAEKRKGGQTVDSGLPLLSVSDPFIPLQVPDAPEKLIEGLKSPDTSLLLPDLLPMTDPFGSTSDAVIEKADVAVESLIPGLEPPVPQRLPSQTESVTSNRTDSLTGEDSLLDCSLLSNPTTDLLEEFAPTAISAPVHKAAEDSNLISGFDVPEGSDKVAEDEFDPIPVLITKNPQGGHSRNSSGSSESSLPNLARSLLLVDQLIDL
# Method: as §1, §2, §3, §4, §5
compound,measurement,setting,value
"CNC(=O)c1ccccc1Nc1nc(Nc2ccc(N3CCN(CCOCCOCCOCCOCC(=O)Nc4cccc5c4CN(C4CCC(=O)NC4=O)C5=O)CC3)cc2)ncc1Cl.O=CO (centres unmarked) [CEREBLON_PROTAC, 14-(4-(4-((5-Chloro-4-((2-(methylcarbamoyl)phenyl)amino)pyrimidin-2-yl)amino)phenyl)piperazin-1-yl)-N-(2-(2,6-dioxopiperidin-3-yl)-1-oxoisoindolin-4-yl)-3,6,9,12-tetraoxatetradecan-1-amide formate]",log2 rel. fc. to vehicle control,"[1]; 24 h 0.1 μM, n = 1",−1.13
same,log2 rel. fc. to vehicle control,"[1]; 24 h 0.1 μM, n = 2",−1.35
same,log2 rel. fc. to vehicle control,"[1]; 24 h 1 μM, n = 1",−0.93
same,log2 rel. fc. to vehicle control,"[1]; 24 h 1 μM, n = 2",−1.13
same,log2 rel. fc. to vehicle control,"[2]; 24 h 0.1 μM, n = 1",−2.34
same,log2 rel. fc. to vehicle control,"[2]; 24 h 0.1 μM, n = 2",−2.12
same,log2 rel. fc. to vehicle control,"[2]; 24 h 1 μM, n = 1",−2.42
same,log2 rel. fc. to vehicle control,"[2]; 24 h 1 μM, n = 2",−2.56
